`Cc1ccc(-c2cc(C(F)(F)F)nn2-c2ccc(F)cc2F)cc1` [Example 2C, 1-(2,4-Difluorophenyl)-5-(4-methylphenyl)-3-(trifluoromethyl)pyrazole] showed a melting point of 83 °C.
`Cc1ccc(-c2cc(C(F)(F)F)nn2-c2cc(C)ccc2F)cc1` [Example 2H, 1-(2-Fluoro-5-methylphenyl)-5-(4-methylphenyl)-3-(trifluoromethyl)pyrazole] showed a melting point of 45 °C.

Source: US6403629B2, “Heterocyclic compounds for therapeutic use” (J.B. Chemical and Pharmaceuticals Limited, priority 2000, dated 2002)
